Patent publication US10532036B2, “Combination composition” (AFT Pharmaceuticals Ltd, priority 2004, dated 2020)
Where two headings read alike, the source gives them in different places.

Assays:
[1] = test system: pain following wisdom tooth extraction under local anaesthesia; experiment: pilot study using a dental pain model, visual analogue scale pain scores; type: in vivo, patients; conditions: VAS score, calculated from the trial of Example 5, lower = less pain
Method: Pain scores at rest and on activity were measured by visual analogue scales which were used to derive an area-under-the curve (AUC) pain score. A lower AUC represents better pain relief.
A lower VAS score is consistent with less pain due to better pain relief. […] Pain scores were calculated as means over the first dose interval rather than AUC values to allow comparison with literature values for paracetamol in the dental pain model.

[2] = test system: postoperative pain after third molar surgery; conditions: VAS, paracetamol 1000 mg, RA Seymour et al 2003, cited from earlier work

Structure (SMILES)	Mean Pain Score at Rest (over first dose interval) [1] [mm]	Mean Pain Score at Rest ([2]; 0-30 minutes)	Mean Pain Score at Rest ([2]; over 4 hours) [mm]
CC(C)Cc1ccc(C(C)C(=O)O)cc1 (stereo not drawn) [Ibuprofen]	28	–	–
CC(=O)Nc1ccc(O)cc1 [Paracetamol]	–	46-48 mm	42
